Test results reported in patent US20260217701A1, “SELECTIVE BET INHIBITORS AND USES THEREOF” (Tay Therapeutics Limited, priority 2022, published 2026).
“And” between values parts separate entries of the source, which are not always exact repeats. Identical values can stand only once.

Test: Dog PK study #3 (Compound A PO once daily 5 days, 5/10/20 mg/kg; PK, body weight, hematology)
Type: in vivo, beagle dogs
Design: Plasma Concentration: unit not given here
Description: For the third dog pharmacokinetic study, three solutions of different concentrations of Compound A were prepared in 5% DMSO/15% PEG-400/80% (10% VE-TPGS) as outlined in Table 2E. The Compound A solutions were administered to animals orally (PO) once daily over a five-day period. Body weight was recorded prior to dosing, and detailed clinical observations were made prior to dosing and throughout the study, as needed.
Animals were divided into Day 1 and Day 5 sample collection groups, with animals in the Day 1 collection group having blood samples taken prior to dosing and at 0.25, 0.5, 1, 2, 4, 8, and 24 hours after dosing on day 1. Animals in the Day 5 collection group having blood samples taken prior to dosing and at 0.25, 0.5, 1, 2, 4, 8, and 24 hours after dosing on day 5. Study groups are outlined in Table 3D.
Blood samples (~0.3 mL) were collected on day according to the following schedule (0.25, 0.5, 1, 2, 4, 8, and 24 h) after day 5 administration of Compound A by venipuncture of peripheral veins except for the dosing vein, and EDTA-K2 was used as anticoagulant. Within 30 minutes of collection, the samples were centrifuged at approximately 2000 times g-force for 10 minutes at 4° C. to obtain blood plasma. The plasma samples were immediately divided into two aliquots (~75 μL each), transferred to a cryogenic vial, and stored in a freezer at −75±15° C. prior to analysis.
The concentration of Compound A in the blood plasma was determined through LC-MS as previously described. Briefly, the experiments were conducted on a DMPK-LCMS-14-SMBA Triple Quad 6500 Plus instrument with an ACQUITY UPLC BEH C18 1.7 μm (50×2.1 mm) column. The matrix was male beagle dog plasma potassium (K2) EDTA A gradient of 95% water (0.1% formic acid and 2 mM HCOONH4)/95% acetonitrile (0.1% formic acid and 2 mM HCOONH4) was used as the mobile phase. The sample flow rate was 0.6 mL/min.
The samples were then vortex-mixed for 10 minutes at 800 rpm and centrifuged for 15 minutes at 3220×g at 4° C. 50 μL aliquots of supernatant were transferred to a clean 96-well plate and centrifuged for 5 minutes at 3220×g at 4° C. Samples were then injected into the LC/MS/MS system for quantitative analysis.
The gathered data were used for pharmacokinetic calculations using T1/2, CO, AUClast, AUCinf, MRTinf, Cl, Vss, and Number of Points for Regression as parameters.
The cell composition (hematology) of blood samples was analyzed at day 5. Analyses identified the total number of white blood cells, neutrophils, lymphocytes, monocytes, eosinophils, basophils, and platelets in collected samples.

[1] = Day 1, 20 mg/kg dose PO, individual animals
[2] = Day 1, Group 1, individual animals
[3] = Day 1, Group 2, individual animals
[4] = Day 1, Group 3, individual animals
[5] = Day 2, Group 1, individual animals
[6] = Day 2, Group 2, individual animals
[7] = Day 2, Group 3, individual animals
[8] = Day 3, Group 1, individual animals
[9] = Day 3, Group 2, individual animals
[10] = Day 3, Group 3, individual animals
[11] = Day 4, Group 1, individual animals
[12] = Day 4, Group 2, individual animals
[13] = Day 4, Group 3, individual animals
[14] = Day 5, 5 mg/kg dose PO, individual animals

Cn1cc(-c2ccccc2)c(-c2cn(C)c(=O)c3[nH]c(-c4cnn(C(F)(F)F)c4)cc23)cc1=O [Compound A, 6-methyl-4-(1-methyl-2-oxo-5-phenyl-1,2-dihydropyridin-4-yl)-2-(1-(trifluoromethyl)-1H-pyrazol-4-yl)-1,6-dihydro-7H-pyrrolo[2,3-c]pyridin-7-one]
Cmax [1]: 6000 ng/mL
MRT0-inf [1]: 18.1 h
MRT0-last [1]: 10.1 h
Tlast [1]: 24.0 h
T½ [1]: 5.64 h and 11.7 h
Vz_F [1]: 3.09 L/kg and 2.89 L/kg
AUC0-last (Day 1, 20 mg/kg dose PO, mean): 67852 ng·h/mL
AUCExtra (Day 1, 20 mg/kg dose PO, mean): 16.1%
AUMCExtra (Day 1, 20 mg/kg dose PO, mean): 39.6%
Cl_F (Day 1, 20 mg/kg dose PO, mean): 4.59 mL/min/kg
Tlast (Day 1, 20 mg/kg dose PO, mean): 24.0 h
Vz_F (Day 1, 20 mg/kg dose PO, mean): 2.99 L/kg
Animal body weight [2]: 8.38 kg and 8.88 kg
Clinical Observation [2]: None
Animal Body Weight, Mean (Day 1, Group 1, mean): 8.63 kg
Animal body weight [3]: 8.36 kg and 9.37 kg
Clinical Observation [3]: None
Animal Body Weight, Mean (Day 1, Group 2, mean): 8.87 kg
Animal body weight [4]: 9.24 kg and 8.79 kg
Clinical Observation [4]: None
Animal Body Weight, Mean (Day 1, Group 3, mean): 9.02 kg
Animal body weight [5]: 8.44 kg and 9.33 kg
Clinical Observation [5]: None
Animal Body Weight, Mean (Day 2, Group 1, mean): 8.89 kg
Animal body weight [6]: 9.63 kg and 8.65 kg
Clinical Observation [6]: None
Animal Body Weight, Mean (Day 2, Group 2, mean): 9.14 kg
Animal body weight [7]: 9.44 kg and 9.25 kg
Clinical Observation [7]: None
Animal Body Weight, Mean (Day 2, Group 3, mean): 9.35 kg
Animal body weight [8]: 8.45 kg and 9.29 kg
Clinical Observation [8]: None
Animal Body Weight, Mean (Day 3, Group 1, mean): 8.87 kg
Animal body weight [9]: 9.5 kg and 8.69 kg
Clinical Observation [9]: None
Animal Body Weight, Mean (Day 3, Group 2, mean): 9.10 kg
Animal body weight [10]: 9.32 kg and 8.96 kg
Clinical Observation [10]: None
Animal Body Weight, Mean (Day 3, Group 3, mean): 9.14 kg
Animal body weight [11]: 8.45 kg and 9.29 kg
Clinical Observation [11]: None
Animal Body Weight, Mean (Day 4, Group 1, mean): 8.87 kg
Animal body weight [12]: 9.43 kg and 8.6 kg
Clinical Observation [12]: None
Animal Body Weight, Mean (Day 4, Group 2, mean): 9.02 kg
Animal body weight [13]: 9.13 kg and 8.6 kg
Clinical Observation [13]: None
Animal Body Weight, Mean (Day 4, Group 3, mean): 8.87 kg
Plasma Concentration (Day 5, 5 mg/kg dose PO, time 1, individual animals): 1120 and 910
Plasma Concentration (Day 5, 5 mg/kg dose PO, time 1, mean): 1015
Plasma Concentration (Day 5, 5 mg/kg dose PO, time 2, individual animals): 1270 and 1040
Plasma Concentration (Day 5, 5 mg/kg dose PO, time 2, mean): 1155
Plasma Concentration (Day 5, 5 mg/kg dose PO, time 4, individual animals): 1180 and 878
Plasma Concentration (Day 5, 5 mg/kg dose PO, time 4, mean): 1029
Plasma Concentration (Day 5, 5 mg/kg dose PO, time 8, individual animals): 823 and 650
Plasma Concentration (Day 5, 5 mg/kg dose PO, time 8, mean): 737
Plasma Concentration (Day 5, 5 mg/kg dose PO, time 24, individual animals): 400
AUC0-last [14]: 11297 ng·h/mL
AUC(0-inf) [14]: 25554 ng·h/mL and 12279 ng·h/mL
AUCExtra [14]: 30.4% and 8.00%
AUMCExtra [14]: 65.9% and 26.4%
Cl_F [14]: 3.26 mL/min/kg and 6.79 mL/min/kg
Cmax [14]: 1040 ng/mL
MRT0-last [14]: 8.08 h
Tlast [14]: 24.0 h
T½ [14]: 13.5 h and 6.42 h
Vz_F [14]: 3.82 L/kg and 3.77 L/kg
AUC0-last (Day 5, 5 mg/kg dose PO, mean): 14544 ng·h/mL
AUCExtra (Day 5, 5 mg/kg dose PO, mean): 19.2%
AUMCExtra (Day 5, 5 mg/kg dose PO, mean): 46.2%
Cl_F (Day 5, 5 mg/kg dose PO, mean): 5.02 mL/min/kg
Tlast (Day 5, 5 mg/kg dose PO, mean): 24.0 h
Vz_F (Day 5, 5 mg/kg dose PO, mean): 3.79 L/kg
Basophils (Day 5, 5 mg/kg/day (mean), range 0.00-0.19): 0.08 10^3/μL
Eosinophils (Day 5, 5 mg/kg/day (mean), range 0.00-1.24): 0.38 10^3/μL
Monocytes (Day 5, 5 mg/kg/day (mean), range 0.11-1.08): 0.31 10^3/μL
Lymphocytes (Day 5, 5 mg/kg/day (mean), range 1.42-3.76): 2.72 10^3/μL
